# Laboratory results: patent publication US8501782B2, “Piperidinyl derivatives as modulators of chemokine receptor activity” (Bristol-Myers Squibb Company, priority 2007, dated 2013)
# pIC50: −log10 of the molar value.
# Target: T1, CCR1 (Homo sapiens, UniProt P32246)
# T1 construct: THP-1 monocytic leukemia cells are combined with 100 μg of LS WGA PS beads; endogenous in cells; host or cells: THP-1 human monocytic leukemia cells
# T1 sequence (P32246 1-355): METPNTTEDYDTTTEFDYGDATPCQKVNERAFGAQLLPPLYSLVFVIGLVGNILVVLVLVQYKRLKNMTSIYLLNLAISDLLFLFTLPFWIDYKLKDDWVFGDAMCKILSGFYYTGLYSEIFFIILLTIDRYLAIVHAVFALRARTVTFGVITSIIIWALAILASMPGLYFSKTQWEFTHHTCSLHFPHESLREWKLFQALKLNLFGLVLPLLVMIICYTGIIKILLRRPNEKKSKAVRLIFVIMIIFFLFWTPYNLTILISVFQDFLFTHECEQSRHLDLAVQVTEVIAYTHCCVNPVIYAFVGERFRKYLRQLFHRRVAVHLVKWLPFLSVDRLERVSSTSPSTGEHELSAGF
# Assay: CCR1 ligand binding scintillation proximity assay (SPA): antagonism of MIP-1α binding to human THP-1 cells
# Conditions: THP-1 monocytic leukemia cells, 0.1 nM [125I]-MIP-1α, 12 h at room temperature
# Experimental: Antagonism of MIP-1α Binding to Human THP-1 Cells
# CCR1 ligand binding scintillation proximity assay (SPA) description:
# For radioligand competition studies, a final concentration of 1×10^5 THP-1 monocytic leukemia cells are combined with 100 μg of LS WGA PS beads (Amersham, Cat.#: RPNQ 0260) in 40 μl of assay buffer (RPMI 1640 without phenol red, 50 mM HEPES, 5 mM MgCl2, 1 mM CaCl2, 0.1% BSA). The THP-1 cell/bead mixture is added to each well of a 384-well assay plate (PerkinElmer, Cat. #:6007899) containing test compound in 3-fold serial dilution, with final concentrations ranging from 8 μM to […]. A final concentration of 0.1 nM [^125I]-MIP-1α (PerkinElmer, Cat. #NEX298) in 20 μl assay buffer is added to the reaction. Sealed assay plates are incubated at room temperature for 12 h then analyzed by LEADseeker™.
# The competition data of the test compound over a range of concentrations is plotted as percentage inhibition of radioligand specific bound in the absence of test compound (percent of total signal). After correcting for non-specific binding, IC50 values are determined. The IC50 value is defined as the concentration of test compound needed to reduce [^125I]-MIP-1α specific binding by 50% and is calculated using the four parameter logistic equation to fit the normalized data. The Ki values are determined by application of the Cheng-Prusoff equation to the IC50 values, where Ki=IC50/(1+ligand concentration/Kd) The Kd of [^125I]-MIP-1α in THP-1 cells is 0.1 nM. Each experiment is run in duplicate.
row,Compound,pIC50
1,CC(C)[C@@H](CNC(=O)Cc1ccccc1)C(=O)N1CC[C@](O)(c2ccc(Cl)cc2)C(C)(C)C1 [Example 89],6.09
2,CC(C)(CC(=O)N1CCC(O)(c2ccc(C#N)cc2)C(C)(C)C1)NC(=O)c1ccccc1 (stereo not drawn) [Example 60],7.34
3,"CC(NC(=O)c1ccccc1)C(C)C(=O)N1CC[C@](O)(c2ccc(Cl)cc2)C(C)(C)C1 (single isomer, unassigned) [Example 72a]",5.93
4,C[C@H](CC(=O)N1CC[C@](O)(c2ccc(Cl)cc2)C(C)(C)C1)NC(=O)[C@@H]1CC[C@@H](NC(=O)OC(C)(C)C)C1 [Example 28],7.33
5,CCOC(=O)c1cc(C2(O)CCN(C(=O)CC(C)(C)NC(=O)c3ccccc3)CC2(C)C)ccc1Cl (stereo not drawn) [Example 78],6.00
6,CC(C)(CC(=O)N1CCC(O)(c2ncc(Cl)cc2Cl)C(C)(C)C1)NC(=O)c1ccccc1 (stereo not drawn) [Example 83],6.10
7,"CC1(C)CN(C(=O)CC2(NC(=O)c3ccccc3)CCOCC2)CC[C@]1(O)c1ccc(Cl)cc1 [Example 15, (S)—N-(4-(2-(4-(4-Chlorophenyl)-4-hydroxy-3,3-dimethylpiperidin-1-yl)-2-oxoethyl)tetrahydro-2H-pyran-4-yl)benzamide]",5.93
8,"CC(=O)N[C@@H]1CC[C@@H](C(=O)N[C@H](C)CC(=O)N2CC[C@](O)(c3ccc(Cl)cc3)C(C)(C)C2)C1 [Example 11, (1R,3R)-3-Acetamido-N—((R)-4-((S)-4-(4-chlorophenyl)-4-hydroxy-3,3-dimethylpiperidin-1-yl)-4-oxobutan-2-yl)cyclopentanecarboxamide]",7.36

# The next compounds have a higher pIC50 than those just listed; values first:
row,pIC50,Compound
1,7.38,CC(CNC(=O)C1CCCC1)C(=O)N1CC[C@](O)(c2ccc(Cl)cc2)C(C)(C)C1 (stereo partly drawn) [Example 21]
2,7.38,CC1(C)CN(C(=O)CCNC(=O)c2ccccc2)CC[C@]1(O)c1ccc(Cl)cc1 [Example 27]
3,8.66,CC(C)(CC(=O)N1CC[C@](O)(c2ccc(Cl)cc2)C(C)(C)C1)NC(=O)c1cccc(-n2cnnn2)c1 [Example 50]
4,8.72,"C[C@H](NC(=O)NC(C)(C)CC(=O)N1CC[C@](O)(c2ccc(Cl)cc2)C(C)(C)C1)C(C)(C)O [Example 63, 1-(4-((S)-4-(4-Chlorophenyl)-4-hydroxy-3,3-dimethylpiperidin-1-yl)-2-methyl-4-oxobutan-2-yl)-3-((S)-3-hydroxy-3-methylbutan-2-yl)urea]"
5,8.74,CC(C)(CC(=O)N1CC[C@](O)(c2ccc(Cl)cc2)C(C)(C)C1)NC(=O)c1cccc(C(N)=O)c1 [Example 42]
6,8.77,CC(C)(CC(=O)N1CC[C@](O)(c2ccc(Cl)cc2)C(C)(C)C1)NC(=O)C1CCCC1 [Example 35]
7,8.82,Cc1cc(C)c(C(=O)NC(C)(C)CC(=O)N2CC[C@](O)(c3ccc(Cl)cc3)C(C)(C)C2)cn1 [Example 40]
